Laboratory results published in the supplement of paper PMC10307832.

Assays:
Experiment in all cases: relative viability (nuclei count vs DMSO), 5 days (fraction); higher = more cells survive
COR-L 105 = tested on: COR-L 105
Outline: (§1)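 Lung cancer cell lines in 1536-well plates got either a single drug or a fixed anchor-drug dose together with five library-drug doses (not always all listed) in √10 steps, by pin tool, on the day after seeding. Nuclei were counted after 5 days, and relative viability is the treated-to-vehicle ratio of nuclei counts. Values are medians of duplicate plates.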

COR-L23 = tested on: COR-L23
Outline: as §1

HARA = tested on: HARA
Outline: as §1

HCC-15 = tested on: HCC-15
Outline: as §1

HOP-62 = tested on: HOP-62
Outline: as §1

NCI-H1355 = tested on: NCI-H1355
Outline: as §1

NCI-H1395 = tested on: NCI-H1395
Outline: as §1

NCI-H1734 = tested on: NCI-H1734
Outline: as §1

NCI-H1755 = tested on: NCI-H1755
Outline: as §1

NCI-H1792 = tested on: NCI-H1792
Outline: as §1

NCI-H1793 = tested on: NCI-H1793
Outline: as §1

NCI-H1993 = tested on: NCI-H1993
Outline: as §1

NCI-H2009 = tested on: NCI-H2009
Outline: as §1

NCI-H2170 = tested on: NCI-H2170
Outline: as §1

NCI-H2228 = tested on: NCI-H2228
Outline: as §1

NCI-H2347 = tested on: NCI-H2347
Outline: as §1

NCI-H358 = tested on: NCI-H358
Outline: as §1

NCI-H522 = tested on: NCI-H522
Outline: as §1

NCI-H647 = tested on: NCI-H647
Outline: as §1

NCI-H838 = tested on: NCI-H838
Outline: as §1

SK-MES-1 = tested on: SK-MES-1
Outline: as §1

UMC-11 = tested on: UMC-11
Outline: as §1

O=c1cc(N2CCOCC2)oc2c(-c3cccc4c3sc3ccccc34)cccc12 + CC(=O)c1c(C)c2cnc(Nc3ccc(N4CCNCC4)cn3)nc2n(C2CCCC2)c1=O [Palbociclib] (partner 0.5 µM)
relative viability (COR-L 105; first compound 0.01 µM): 0.41
relative viability (COR-L 105; first compound 0.03162 µM): 0.468
relative viability (COR-L 105; first compound 0.1 µM): 0.438
relative viability (COR-L 105; first compound 0.3162 µM): 0.409
relative viability (COR-L 105; first compound 1 µM): 0.386
relative viability (COR-L23; first compound 0.01 µM): 0.289
relative viability (COR-L23; first compound 0.03162 µM): 0.303
relative viability (COR-L23; first compound 0.1 µM): 0.317
relative viability (COR-L23; first compound 0.3162 µM): 0.301
relative viability (COR-L23; first compound 1 µM): 0.316
relative viability (HARA; first compound 0.01 µM): 0.253
relative viability (HARA; first compound 0.03162 µM): 0.252
relative viability (HARA; first compound 0.1 µM): 0.201
relative viability (HARA; first compound 0.3162 µM): 0.278
relative viability (HARA; first compound 1 µM): 0.307
relative viability (HCC-15; first compound 0.01 µM): 0.73
relative viability (HCC-15; first compound 0.03162 µM): 0.709
relative viability (HCC-15; first compound 0.1 µM): 0.891
relative viability (HCC-15; first compound 0.3162 µM): 0.624
relative viability (HCC-15; first compound 1 µM): 0.727
relative viability (HOP-62; first compound 0.01 µM): 0.452
relative viability (HOP-62; first compound 0.03162 µM): 0.451
relative viability (HOP-62; first compound 0.1 µM): 0.451
relative viability (HOP-62; first compound 0.3162 µM): 0.459
relative viability (HOP-62; first compound 1 µM): 0.415
relative viability (NCI-H1355; first compound 0.01 µM): 0.424
relative viability (NCI-H1355; first compound 0.03162 µM): 0.403
relative viability (NCI-H1355; first compound 0.1 µM): 0.412
relative viability (NCI-H1355; first compound 0.3162 µM): 0.39
relative viability (NCI-H1355; first compound 1 µM): 0.392
relative viability (NCI-H1395; first compound 0.03162 µM): 0.547
relative viability (NCI-H1395; first compound 0.1 µM): 0.634
relative viability (NCI-H1395; first compound 0.3162 µM): 0.631
relative viability (NCI-H1395; first compound 1 µM): 0.637
relative viability (NCI-H1734; first compound 0.01 µM): 0.324
relative viability (NCI-H1734; first compound 0.03162 µM): 0.342
relative viability (NCI-H1734; first compound 0.1 µM): 0.434
relative viability (NCI-H1734; first compound 0.3162 µM): 0.352
relative viability (NCI-H1734; first compound 1 µM): 0.374
relative viability (NCI-H1755; first compound 0.01 µM): 0.475
relative viability (NCI-H1755; first compound 0.03162 µM): 0.455
relative viability (NCI-H1755; first compound 0.1 µM): 0.488
relative viability (NCI-H1755; first compound 0.3162 µM): 0.457
relative viability (NCI-H1755; first compound 1 µM): 0.456
relative viability (NCI-H1792; first compound 0.01 µM): 0.641
relative viability (NCI-H1792; first compound 0.03162 µM): 0.577
relative viability (NCI-H1792; first compound 0.1 µM): 0.658
relative viability (NCI-H1792; first compound 0.3162 µM): 0.668
relative viability (NCI-H1792; first compound 1 µM): 0.683
relative viability (NCI-H1793; first compound 0.01 µM): 0.299
relative viability (NCI-H1793; first compound 0.03162 µM): 0.295
relative viability (NCI-H1793; first compound 0.1 µM): 0.314
relative viability (NCI-H1793; first compound 0.3162 µM): 0.266
relative viability (NCI-H1793; first compound 1 µM): 0.234
relative viability (NCI-H1993; first compound 0.01 µM): 0.738
relative viability (NCI-H1993; first compound 0.03162 µM): 0.6
relative viability (NCI-H1993; first compound 0.1 µM): 0.658
relative viability (NCI-H1993; first compound 0.3162 µM): 0.64
relative viability (NCI-H1993; first compound 1 µM): 0.545
relative viability (NCI-H2009; first compound 0.01 µM): 0.234
relative viability (NCI-H2009; first compound 0.03162 µM): 0.25
relative viability (NCI-H2009; first compound 0.1 µM): 0.22
relative viability (NCI-H2009; first compound 0.3162 µM): 0.177
relative viability (NCI-H2009; first compound 1 µM): 0.158
relative viability (NCI-H2170; first compound 0.01 µM): 0.424
relative viability (NCI-H2170; first compound 0.03162 µM): 0.422
relative viability (NCI-H2170; first compound 0.1 µM): 0.408
relative viability (NCI-H2170; first compound 0.3162 µM): 0.405
relative viability (NCI-H2170; first compound 1 µM): 0.371
relative viability (NCI-H2228; first compound 0.01 µM): 0.943
relative viability (NCI-H2228; first compound 0.03162 µM): 0.749
relative viability (NCI-H2228; first compound 0.1 µM): 0.802
relative viability (NCI-H2228; first compound 0.3162 µM): 0.683
relative viability (NCI-H2228; first compound 1 µM): 0.83
relative viability (NCI-H2347; first compound 0.01 µM): 0.365
relative viability (NCI-H2347; first compound 0.03162 µM): 0.414
relative viability (NCI-H2347; first compound 0.1 µM): 0.445
relative viability (NCI-H2347; first compound 0.3162 µM): 0.424
relative viability (NCI-H2347; first compound 1 µM): 0.39
relative viability (NCI-H358; first compound 0.01 µM): 0.163
relative viability (NCI-H358; first compound 0.03162 µM): 0.127
relative viability (NCI-H358; first compound 0.1 µM): 0.132
relative viability (NCI-H358; first compound 0.3162 µM): 0.133
relative viability (NCI-H358; first compound 1 µM): 0.126
relative viability (NCI-H522; first compound 0.01 µM): 0.887
relative viability (NCI-H522; first compound 0.03162 µM): 1.25
relative viability (NCI-H522; first compound 0.1 µM): 0.831
relative viability (NCI-H522; first compound 0.3162 µM): 0.948
relative viability (NCI-H522; first compound 1 µM): 0.977
relative viability (NCI-H647; first compound 0.01 µM): 0.392
relative viability (NCI-H647; first compound 0.03162 µM): 0.409
relative viability (NCI-H647; first compound 0.1 µM): 0.387
relative viability (NCI-H647; first compound 0.3162 µM): 0.364
relative viability (NCI-H647; first compound 1 µM): 0.314
relative viability (NCI-H838; first compound 0.01 µM): 0.26
relative viability (NCI-H838; first compound 0.03162 µM): 0.182
relative viability (NCI-H838; first compound 0.1 µM): 0.222
relative viability (NCI-H838; first compound 0.3162 µM): 0.228
relative viability (NCI-H838; first compound 1 µM): 0.202
relative viability (SK-MES-1; first compound 0.01 µM): 0.274
relative viability (SK-MES-1; first compound 0.03162 µM): 0.343
relative viability (SK-MES-1; first compound 0.1 µM): 0.359
relative viability (SK-MES-1; first compound 0.3162 µM): 0.341
relative viability (SK-MES-1; first compound 1 µM): 0.295
relative viability (UMC-11; first compound 0.01 µM): 0.309
relative viability (UMC-11; first compound 0.03162 µM): 0.294
relative viability (UMC-11; first compound 0.1 µM): 0.32
relative viability (UMC-11; first compound 0.3162 µM): 0.347
relative viability (UMC-11; first compound 1 µM): 0.324
